Source: PubChem BioAssay AID248 (DTP/NCI, 2004)
“And” between values parts separate entries of the source, which are not always exact repeats. Equal entries are not always repeated. Inconclusive results and toxic doses are left out. Cut-off read from the data, not from the text of the source: active = T/C of 150% or more; inactive = T/C below 125%.

Tested on: L1210 leukemia ip in BDF1 mice, survival T/C
Assay: NCI In Vivo Anticancer Drug Screen. Data for tumor model L1210 Leukemia (intraperitoneal) in B6D2F1 (BDF1) mice
Settings: endpoint: mean survival time, higher = longer survival
Method in brief: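 Transplantable tumor model; survival measured in treated vs vehicle control mice. Value = treated/control.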

[1] = dose: 200.0 mg/kg/injection, schedule: Q04DX002 (ip), vehicle: saline with Tween-80
[2] = dose: 400.0 mg/kg/injection, schedule: Q04DX002 (ip), vehicle: saline with Tween-80
[3] = dose: 100.0 mg/kg/injection, schedule: Q01DX009 (ip), vehicle: saline with Tween-80
[4] = dose: 200.0 mg/kg/injection, schedule: Q01DX009 (ip), vehicle: saline with Tween-80
[5] = dose: 200.0 mg/kg/injection, schedule: Q01DX001 (ip), vehicle: saline
[6] = dose: 400.0 mg/kg/injection, schedule: Q01DX001 (ip), vehicle: saline
[7] = dose: 25.0 mg/kg/injection, schedule: Q01DX009 (ip), vehicle: saline with Tween-80
[8] = dose: 50.0 mg/kg/injection, schedule: Q01DX009 (ip), vehicle: saline with Tween-80
[9] = dose: 400.0 mg/kg/injection, schedule: Q01DX001 (ip), vehicle: carboxymethylcellulose (CMC)
[10] = dose: 400.0 mg/kg/injection, schedule: Q01DX009 (ip), vehicle: saline with Tween-80
[11] = dose: 100.0 mg/kg/injection, schedule: Q01DX001 (ip), vehicle: saline with Tween-80
[12] = dose: 200.0 mg/kg/injection, schedule: Q01DX001 (ip), vehicle: saline with Tween-80
[13] = dose: 100.0 mg/kg/injection, schedule: Q04DX002 (ip), vehicle: Klucel (hydroxypropylcellulose) (HPC)
[14] = dose: 200.0 mg/kg/injection, schedule: Q04DX002 (ip), vehicle: Klucel (hydroxypropylcellulose) (HPC)
[15] = dose: 400.0 mg/kg/injection, schedule: Q04DX002 (ip), vehicle: Klucel (hydroxypropylcellulose) (HPC)
[16] = dose: 100.0 mg/kg/injection, schedule: Q04DX002 (ip), vehicle: saline with Tween-80
[17] = dose: 50.0 mg/kg/injection, schedule: Q04DX002 (ip), vehicle: Klucel (hydroxypropylcellulose) (HPC)
[18] = dose: 100.0 mg/kg/injection, schedule: Q01DX001 (ip), vehicle: other
[19] = dose: 200.0 mg/kg/injection, schedule: Q01DX001 (ip), vehicle: other

Measured: T/C

CCC12CC3(C(=O)OC)OC1C(O)CN1CCc4c(n3c3cc(OC)ccc43)C12 (stereo not drawn)
inactive: dose: 6.25 mg/kg/injection, schedule: Q04DX002 (ip), vehicle: saline with Tween-80 100 % of control | dose: 12.5 mg/kg/injection, schedule: Q04DX002 (ip), vehicle: saline with Tween-80 107 % of control | dose: 25.0 mg/kg/injection, schedule: Q04DX002 (ip), vehicle: saline with Tween-80 103 % of control | dose: 50.0 mg/kg/injection, schedule: Q04DX002 (ip), vehicle: saline with Tween-80 100 % of control and 86 % of control | [1] 89 % of control | [2] 89 % of control

CC(=O)Nc1cc([N+](=O)[O-])cc(C)c1O
inactive: [3] 97 % of control | [4] 89 % of control

CC1CC(C)OP(Oc2ccccc2)O1 (stereo not drawn)
inactive: dose: 100.0 mg/kg/injection, schedule: Q01DX001 (ip), vehicle: saline 110 % of control | [5] 96 % of control | [6] 98 % of control

Nc1cccc(Cl)c1
inactive: [7] 92 % of control | [8] 92 % of control | [3] 95 % of control | dose: 100.0 mg/kg/injection, schedule: Q04DX003 (ip), vehicle: Klucel (hydroxypropylcellulose) (HPC) 95 % of control | dose: 200.0 mg/kg/injection, schedule: Q04DX003 (ip), vehicle: Klucel (hydroxypropylcellulose) (HPC) 90 % of control

O=C(Nc1c(Br)cc2c(c1Br)Cc1cc([N+](=O)[O-])ccc1-2)C(Cl)Cl
inactive: dose: 100.0 mg/kg/injection, schedule: Q01DX001 (ip), vehicle: carboxymethylcellulose (CMC) 98 % of control | dose: 200.0 mg/kg/injection, schedule: Q01DX001 (ip), vehicle: carboxymethylcellulose (CMC) 107 % of control | [9] 109 % of control

Cc1ccc(S(=O)(=O)N(C)CCCCC(=O)O)cc1
inactive: [3] 90 % of control | [4] 104 % of control | [10] 93 % of control

NC1CCC1N (stereo not drawn)
inactive: dose: 100.0 mg/kg/injection, schedule: Q04DX003 (ip), vehicle: saline 104 % of control | dose: 200.0 mg/kg/injection, schedule: Q04DX003 (ip), vehicle: saline 108 % of control | dose: 400.0 mg/kg/injection, schedule: Q04DX003 (ip), vehicle: saline 98 % of control

Nc1nc(=S)c2nc(CNc3ccc(C(=O)NC(CCC(=O)O)C(=O)O)cc3)nnc2[nH]1 (stereo not drawn)
inactive: [11] 103 % of control | [12] 105 % of control

CC(N)(CCCC(=O)O)C(=O)O (stereo not drawn)
inactive: dose: 176.0 mg/kg/injection, schedule: Q01DX001 (ip), vehicle: carboxymethylcellulose (CMC) 95 % of control | dose: 264.0 mg/kg/injection, schedule: Q01DX001 (ip), vehicle: carboxymethylcellulose (CMC) 100 % of control | [9] 95 % of control | dose: 600.0 mg/kg/injection, schedule: Q01DX001 (ip), vehicle: carboxymethylcellulose (CMC) 98 % of control

CCOC(=O)C1=C2c3ccc4ccccc4c3CCC2(C)C(=O)C1 (stereo not drawn)
inactive: dose: 75.0 mg/kg/injection, schedule: Q01DX001 (sc), vehicle: steriod suspending solution 98 % of control | dose: 75.0 mg/kg/injection, schedule: Q01DX009 (sc), vehicle: steriod suspending solution 106 % of control | dose: 150.0 mg/kg/injection, schedule: Q01DX001 (sc), vehicle: steriod suspending solution 103 % of control | dose: 150.0 mg/kg/injection, schedule: Q01DX009 (sc), vehicle: steriod suspending solution 101 % of control | dose: 300.0 mg/kg/injection, schedule: Q01DX001 (sc), vehicle: steriod suspending solution 93 % of control | dose: 300.0 mg/kg/injection, schedule: Q01DX009 (sc), vehicle: steriod suspending solution 105 % of control

CC(C)OC(=S)SCC(=O)c1ccc([N+](=O)[O-])cc1
inactive: [13] 112 % of control | [14] 102 % of control | [15] 105 % of control

CCCCCCCCC1SC(=S)NC1CCCCCCCC(=O)OC (stereo not drawn)
inactive: [16] 96 % of control | [1] 100 % of control | [2] 100 % of control

N#CC(c1ccc(Br)cc1)C1c2ccccc2-c2ccccc21 (stereo not drawn)
inactive: dose: 50.0 mg/kg/injection, schedule: Q01DX001 (ip), vehicle: Klucel (hydroxypropylcellulose) (HPC) 93 % of control | dose: 100.0 mg/kg/injection, schedule: Q01DX001 (ip), vehicle: Klucel (hydroxypropylcellulose) (HPC) 91 % of control | dose: 200.0 mg/kg/injection, schedule: Q01DX001 (ip), vehicle: Klucel (hydroxypropylcellulose) (HPC) 86 % of control

Cc1cccc(C2=N/C(=C\c3ccccc3)C(=O)O2)c1
inactive: [16] 95 % of control | [1] 89 % of control | [2] 89 % of control

CC(=O)NC(CSSCC(N)C(=O)O)C(=O)O (stereo not drawn) (tested in a mixture with another compound)
inactive: dose: 12.5 mg/kg/injection, schedule: Q04DX002 (ip), vehicle: DMSO 93 % of control | dose: 25.0 mg/kg/injection, schedule: Q04DX002 (ip), vehicle: DMSO 103 % of control | dose: 50.0 mg/kg/injection, schedule: Q04DX002 (ip), vehicle: DMSO 93 % of control

O=[N+]([O-])/C=C/c1c(O)c(Cl)cc(Cl)c1Cl
inactive: dose: 12.5 mg/kg/injection, schedule: Q04DX002 (ip), vehicle: Klucel (hydroxypropylcellulose) (HPC) 92 % of control | dose: 25.0 mg/kg/injection, schedule: Q04DX002 (ip), vehicle: Klucel (hydroxypropylcellulose) (HPC) 92 % of control | [17] 95 % of control

Cc1ccccc1N=Cc1ccccc1O.[Co]
inactive: [18] 102 % of control | [19] 98 % of control

O=C(OC1CCC/C=C\CCCC1)c1ccc(Cl)cc1 (stereo not drawn)
inactive: [5] 104 % of control | [6] 98 % of control

Cc1cccc(Nc2nc(N)nc(N)c2N=O)c1
inactive: dose: 100.0 mg/kg/injection, schedule: Q01DX Z (ip), vehicle: methylcellulose (MC) 102 % of control | [13] 101 % of control | dose: 200.0 mg/kg/injection, schedule: Q01DX Z (ip), vehicle: methylcellulose (MC) 97 % of control | [14] 94 % of control | [15] 101 % of control

COc1ccc(C(C)(O)c2cc3ccccc3n2S(=O)(=O)c2ccccc2)cc1 (stereo not drawn)
inactive: [17] 102 % of control | [13] 95 % of control | [14] 95 % of control

CCOC(=O)N/N=C(/C)c1cccc([N+](=O)[O-])c1
inactive: dose: 25.0 mg/kg/injection, schedule: Q01DX009 (ip), vehicle: Klucel (hydroxypropylcellulose) (HPC) 103 % of control | dose: 50.0 mg/kg/injection, schedule: Q01DX009 (ip), vehicle: Klucel (hydroxypropylcellulose) (HPC) 103 % of control | dose: 100.0 mg/kg/injection, schedule: Q01DX009 (ip), vehicle: Klucel (hydroxypropylcellulose) (HPC) 100 % of control and 111 % of control

CCOCN1CCCC1
inactive: [7] 101 % of control | [8] 96 % of control | dose: 50.0 mg/kg/injection, schedule: Q04DX003 (ip), vehicle: saline with Tween-80 91 % of control | [11] 104 % of control | [3] 95 % of control | dose: 100.0 mg/kg/injection, schedule: Q04DX003 (ip), vehicle: saline with Tween-80 103 % of control | [12] 110 % of control

CCCCCCCCCCCCCCCCCCOC(=O)c1ccco1
inactive: [18] 96 % of control | [19] 105 % of control | dose: 400.0 mg/kg/injection, schedule: Q01DX001 (ip), vehicle: other 92 % of control

N=Cc1c(O)n(-c2ccccc2)c(=O)n(-c2ccccc2)c1=O
inactive: [3] 102 % of control | [4] 104 % of control | [10] 93 % of control
